Assay results published in patent US9738604B2, “Ethynylbenzene derivatives” (Duke University, priority 2010, dated 2017).
≈ marks a conversion by molar mass, not a printed value. Where two headings read alike, the source gives them in different places.

How the values were obtained:
[1] = tested on: E. coli W3110; test: microbe, parasite or virus in culture; format: cell-based
[2] = tested on: E. coli W3110RL; test: microbe, parasite or virus in culture; format: cell-based; conditions: for MIC E. coli W3110RL: E. coli with lpxC of R. leguminosarum, 22 hours at 37° C., MTT
[3] = tested on: Acinetobacter Baumannii multidrug-resistant strain (MDR A.b. Isolate); test: Disk diffusion assay, multidrug-resistant strain; format: cell-based; parameters: key to diameter of the growth inhibition, MDR A.b. Isolate: A: no detectable inhibition; B: 6-10 mm; C: 11-15 mm; D: ≧16; conditions: 2 μg of compound per disc, disc 6 mm in diameter
[4] = tested on: N. gonorrhoeae FA19; test: MIC, N. gonorrhoeae drug-sensitive strain; format: cell-based
[5] = tested on: E. coli W3110PA; test: microbe, parasite or virus in culture; format: cell-based; conditions: for MIC E. coli W3110PA: E. coli with lpxC of P. aeruginosa, 22 hours at 37° C., MTT
[6] = tested on: N. gonorrhoeae 35/02; test: MIC, N. gonorrhoeae drug-resistant strain; format: cell-based; conditions: drug-resistant strain 35/02
[7] = tested on: Acinetobacter Baumannii antibiotic susceptible strain (Sus. A.b. Isolate); test: Disk diffusion assay, antibiotic susceptible strain; format: cell-based; parameters: key to diameter of the growth inhibition, Sus. A.b. Isolate: A: no detectable inhibition; B: 6-10 mm; C: 11-15 mm; D: ≧16; conditions: 2 μg of compound per disc, disc 6 mm in diameter
[8] = tested on: P. aeruginosa (PAO1); test: MIC, P. aeruginosa; format: cell-based; conditions: for MIC P. aeruginosa (PAO1): 22 hours at 37° C., MTT
[9] = tested on: N. gonorrhoeae 35/02; conditions: resistance profile of strain 35/02; cited from earlier work

Molecule | MIC [9] [mg/L] | diameter of the growth inhibition, MDR A.b. Isolate [3] | diameter of the growth inhibition, Sus. A.b. Isolate [7] | MIC E. coli W3110 [1] | MIC E. coli W3110RL [2] | MIC N. gonorrhoeae FA 19 [4] | MIC E. coli W3110PA [5] | MIC N. gonorrhoeae 35/02 [6] | MIC P. aeruginosa (PAO1) [8] | also measured
CC(C)(N)[C@H](NC(=O)c1ccc(C#CC#Cc2ccc(N)cc2)cc1)C(=O)NO [CPD-040, (2S)-3-amino-2-({4′-[4′-(4′-aminophenyl)buta-1′,3′-diyn-1-yl]phenyl}formamido)-N-hydroxy-3-methylbutanamide] |  |  |  |  |  |  |  |  |  | MIC ([1]; Escherichia coli, W3110, 22 h, read-out: MIC E. coli W3110): < 1 mg/L; MIC ([2]; Escherichia coli, W3110RL, 22 h, read-out: MIC E. coli W3110RL): 1 to 10 mg/L (≈ 2.56 to 25.6 µM); zone of inhibition at 2 µg/disc ([3]; Acinetobacter baumannii, read-out: diameter of the growth inhibition, MDR A.b. Isolate): 6 to 10 mm; MIC ([4]; Neisseria gonorrhoeae, read-out: MIC N. gonorrhoeae FA 19): 2 to 4 mg/L (≈ 5.12 to 10.2 µM); MIC ([5]; Escherichia coli, W3110PA, 22 h, read-out: MIC E. coli W3110PA): < 1 mg/L; MIC ([6]; Neisseria gonorrhoeae): 5 to 7 mg/L (≈ 12.8 to 17.9 µM); zone of inhibition at 2 µg/disc ([7]; Acinetobacter baumannii, read-out: diameter of the growth inhibition, Sus. A.b. Isolate): 6 to 10 mm; MIC ([8]; Pseudomonas aeruginosa, PAO1, 22 h, read-out: MIC P. aeruginosa (PAO1)): < 1 mg/L
CO/N=C(\C(=O)N[C@@H]1C(=O)N2C(C(=O)O)=C(CSc3nc(=O)c(=O)[nH]n3C)CS[C@H]12)c1csc(N)n1 [ceftriaxone, reference compound] | 0.12 (≈ 0.216 µM) | A | A |  |  |  |  |  |  | 
C[C@@H](O)[C@H](NC(=O)c1ccc(C#CC#Cc2ccccc2N)cc1)C(=O)NO [CPD-013, (2S,3R)-2-{4′-[(2″-aminophenyl)buta-1′,3′-diynyl]benzamido}-1,3-dihydroxybutanamide] |  | A | A | A (key: A: <1 μg/mL; B: 1-10 μg/mL; C: 11-50 μg/mL; D: 51-100 μg/mL; E: >100 μg/mL) | C (11-50 μg/mL) | B (0.1-1 μg/mL) | A (<1 μg/mL) | C (2-4 μg/mL) | B (1-10 μg/mL) | 
C[C@@H](O)[C@H](NC(=O)c1ccc(C#CC#Cc2ccc(N)cc2)cc1)C(=O)NO [CPD-011, (2S,3R)-2-{4′-[(4″-aminophenyl)buta-1′,3′-diynyl]benzamido}-1,3-dihydroxybutanamide] |  | A | A | A (key: A: <1 μg/mL; B: 1-10 μg/mL; C: 11-50 μg/mL; D: 51-100 μg/mL; E: >100 μg/mL) | B (1-10 μg/mL) | C (2-4 μg/mL) | A (<1 μg/mL) | D (5-7 μg/mL) | A (<1 μg/mL) | 
penicillin | 6 |  |  |  |  |  |  |  |  | 
